Measurements as given in patent US10556856B2, “Antibacterial agents” (Rutgers, The State University of New Jersey, priority 2014, dated 2020).
Where “and” joins values, the source holds several entries; their conditions need not be identical. Equal values may be shown once. Where a name gives a salt, the structure may show the parent alone. Read-outs that look alike come from different tables or passages of the source.

Experiments:
[1] = test system: E. coli; assay: Test A MIC/MBC study; assay type: cell-based; settings: for MBC: killing of ≥99.9% of the organisms; for MIC: tryptic soy broth, 37° C. overnight
Method: (§1) MIC/MBC studies were conducted according to a modified literature procedure (LaDow JE, et al. European Journal of Medicinal Chemistry. 46 (2011) 4219-4226). In brief, stock amphiphile solutions were made in 1 mL double-distilled water (0.1M C8 and C10; 0.02M C12), filter sterilized, and sonicated for five minutes. Stocks were then diluted 100× in tryptic soy broth and vortexed. This broth was serially diluted in fresh broth and 100 μL “doped” broth was transferred to 96-well microtiter plate. 10^6 Cfu/mL inoculums were prepared for E. coli and S. aureus. 100 μL inoculum was added to the wells. Plates were put on a shaker for 5 minutes to mix inoculum and broth. Plates were incubated at 37° C. overnight. Wells were visually analyzed the next day by growth or no growth. After MICs were determined, aliquots were taken from each well, plated, and incubated to determine the MBC values for each compound. MBC values were defined as killing of ≥99.9% of the organisms, which corresponds to a 3-log reduction.

[2] = test system: S. aureus; assay: Test A MIC/MBC study; assay type: cell-based; settings: Staphylococcus aureus; for MBC: killing of ≥99.9% of the organisms; for MIC: tryptic soy broth, 37° C. overnight
Method: as §1

[3] = test system: A. baumannii; assay: CLSI/NCCLS broth microdilution assay; assay type: cell-based; settings: 18 hours
[4] = test system: B. cereus; assay: CLSI/NCCLS broth microdilution assay; assay type: cell-based
[5] = test system: B. cepacia; assay: CLSI/NCCLS broth microdilution assay; assay type: cell-based; settings: 18 hours
[6] = test system: B. neotomae; assay: CLSI/NCCLS broth microdilution assay; assay type: cell-based; settings: 18 hours
[7] = test system: E. faecium; assay: CLSI/NCCLS broth microdilution assay; assay type: cell-based
[8] = test system: K. pneumoniae; assay: CLSI/NCCLS broth microdilution assay; assay type: cell-based; settings: 18 hours
[9] = test system: L. pneumophilia; assay: CLSI/NCCLS broth microdilution assay; assay type: cell-based; settings: 18 hours
[10] = test system: P. aeruginosa; assay: CLSI/NCCLS broth microdilution assay; assay type: cell-based; settings: 18 hours
[11] = test system: S. aureus; assay type: cell-based
[12] = test system: Y. pseudotuberculosis; assay type: cell-based; settings: 18 hours
[13] = test system: S. epidermidis; assay: CLSI/NCCLS broth microdilution assay; assay type: cell-based
[14] = test system: Vero Cell
[15] = test system: Staphylococcus aureus Rosenbach ATCC 29213; assay: Broth microdilution assay
[16] = test system: Listeria monocytogenes ATCC 49594; assay: Broth microdilution assay
[17] = test system: Escherichia coli ATCC 43895; assay: Broth microdilution assay
[18] = test system: Pseudomonas aeruginosa ATCC 14213; assay: Broth microdilution assay
[19] = Escherichia coli, read-out: MIC
[20] = S. aureus (G+), TSB, 37° C., 24 h
[21] = L. monocytogenes (G+), TSB, 37° C., 24 h
[22] = E. coli (G−), TSB, 37° C., 24 h
[23] = P. aeruginosa (G−), TSB, 37° C., 24 h
[24] = Staphylococcus aureus, ATCC29213, 24 h
[25] = Listeria monocytogenes, ATCC49594, 24 h
[26] = Escherichia coli, ATCC43895, 24 h
[27] = Pseudomonas aeruginosa, ATCC14213, 24 h

Compound | MBC ([1]; Escherichia coli) | MIC [1, 19] | MBC [2] | MIC [2] | MIC [3] | MIC [5] | MIC [6] | MIC [8] | MIC [10] | MIC [12] | Vero Cell Cytotoxicity [14] | MIC [15, 20] | MIC [16, 21] | MIC [17, 22] | MIC [18, 23] | also measured
CCCNC(=O)[C@H](OC(=O)CCCCCCCCCCCN)[C@@H](OC(=O)CCCCCCCCCCCN)C(=O)NCCC.Cl.Cl [Amphiphile B11] | 400 µM and 280 µg/mL | 400 µM and 280 µg/mL | 50 µM and 35 µg/mL | 25 µM and 17.5 µg/mL | >50 µg/mL | >50 µg/mL | 25 µg/mL | >50 µg/mL | >50 µg/mL | >50 µg/mL | 50 µg/mL | 25 µM | 12.5 µM | 100 µM | 50 µM | MIC ([4]; B. cereus, 18 hours): 50 µg/mL; MIC ([7]; E. faecium, 18 hours): 25 µg/mL; MIC [9]: >50 µg/mL; MIC ([11]; S. aureus, 18 hours): 25 µg/mL; MIC ([13]; S. epidermidis, 18 hours): 25 µg/mL
CCCNC(=O)[C@H](OC(=O)CCCCCCCCCN)[C@@H](OC(=O)CCCCCCCCCN)C(=O)NCCC.Cl.Cl [Amphiphile B9] | 500 µM and 322 µg/mL | 500 µM and 322 µg/mL | 250 µM and 171 µg/mL | 125 µM and 80.5 µg/mL |  |  |  |  |  |  |  | 125 µM | 125 µM | 500 µM | 250 µM | 
[H]/N=C(/N)N[C@H]1[C@H](O)[C@@H](O)[C@H](O[C@@H]2O[C@@H](C)[C@](O)(C=O)[C@H]2O[C@@H]2O[C@@H](CO)[C@H](O)[C@@H](O)[C@@H]2NC)[C@@H](N/C(N)=N\[H])[C@@H]1O [Streptomycin Sulfate, reference compound] | < 100 µg/mL | < 100 µg/mL | < 100 µg/mL | < 100 µg/mL |  |  |  |  |  |  |  |  |  |  |  | MIC [1]: <100 (<100) μg/mL
CCCCCCCCCCCCCCCC[N+](C)(C)C [CTAB, Cetyltrimethylammonium bromide, reference compound] |  |  |  |  |  |  |  |  |  |  |  |  |  |  |  | MIC [15, 24]: 4 µM; MIC [16, 25]: 8 µM; MIC [17, 26]: 32 µM; MIC [18, 27]: 16 µM
CCCNC(=O)[C@H](OC(=O)CCCCCCCN)[C@@H](OC(=O)CCCCCCCN)C(=O)NCCC.Cl.Cl [Amphiphile B7] | 1000 µM and 588 µg/mL | 1000 µM and 588 µg/mL | 500 µM and 294 µg/mL | 500 µM and 294 µg/mL |  |  |  |  |  |  |  | 500 µM | 500 µM | 1000 µM | 1000 µM | 
CCCCCCCCC(=O)OC(C(=O)NCCN)C(OC(=O)CCCCCCCC)C(=O)NCCN.Cl.Cl (stereo not shown) [Amphiphile G7] |  |  |  |  | >50 µg/mL | >50 µg/mL | 3.125 µg/mL | 50 µg/mL | 25 µg/mL | 12.5 µg/mL | >50 µg/mL | 63 μM and 62.5* μM | 63 μM and 62.5* μM | 63 µM | 125 µM | MIC ([4]; B. cereus, 18 hours): 6.25 µg/mL; MIC ([7]; E. faecium, 18 hours): 6.25 µg/mL; MIC [13]: 12.5 µg/mL
CCCCCCCCCCCCOS(=O)(=O)[O-].[Na+] [SDS, Sodium dodecyl sulfate, reference compound] |  |  |  |  |  |  |  |  |  |  |  |  |  |  |  | MIC [15, 24]: 1000 µM; MIC [16, 25]: 2000 µM; MIC [17, 26]: > 2000 µM; MIC [18, 27]: > 2000 µM
CCCCCCCCCCC(=O)OC(C(=O)NCCN)C(OC(=O)CCCCCCCCCC)C(=O)NCCN.Cl.Cl (stereo not shown) [Amphiphile G9] |  |  |  |  | >50 µg/mL | >50 µg/mL | 3.125 µg/mL | >50 µg/mL | >50 µg/mL | 6.25 µg/mL | 50 µg/mL | 500 µM | 250 µM | 125 µM | 250 µM | MIC [4]: 6.25 µg/mL; MIC [7]: 6.25 µg/mL; MIC [9]: 25 µg/mL; MIC [11]: 6.25 µg/mL; MIC [13]: 6.25 µg/mL
